Experimental data as given in patent US12156850B2, “Preservative removal from eye drops containing hydrophilic drugs” (University of Florida Research Foundation, Inc., priority 2017, dated 2024).

How the values were obtained:
[1] = Equilibrium interfacial tension calibration of BAK solutions, Langmuir adsorption isotherm fit; format: physicochemical; conditions: Langmuir fit of b275
Procedure: The dynamic interfacial tension of filtered ophthalmic formulations was measured via pendant drop tensiometry using the commercially automated instrument named Kruss DSA 100 (Drop Shape Analyzer). A pendant drop is a drop of the filtered formulation was suspended at the tip of a 14-gauge needle with air as the surrounding phase. The silhouette of the axisymmetric formulation drop is imaged at regular time intervals and iteratively fit to Young-Laplace equation to measure its dynamic surface tension as a function of time. This robust method is commonly employed due to a high-speed and precise estimation of interfacial tension based on drop curvature and concentration of the formulation. […]
[formula] where Γeq is the equilibrium molar surface concentration, Γ∞ is the maximum molar surface concentration, C is the bulk concentration of the aqueous formulation, α and β are adsorption and desorption constants, R is the ideal gas constant, γO is the interfacial tension of the pure solvent (PBS), γ is the equilibrium interfacial tension recorded after 12 minutes of interfacial surface generation, and T is the operating temperature for acquisition of interfacial tension of drug/BAK formulation (recorded at room temperature, 298 K). […]

[2] = Procedure: The partition coefficients of hydrophilic drugs and BAK in p-HEMA, p-HEMA/t-butyl methacrylate, and p-HEMA/TRIS/t-butyl methacrylate particles were obtained by drug uptake studies. The mass of drug or BAK partitioned into p-HEMA hydrogel matrix was determined by monitoring the amount of drug or BAK lost in the concentrated aqueous drug/PBS or BAK/PBS loading solutions. The amount of drug loss from the concentrated aqueous phase was quantified by time-dependent absorbance measurements using UV-Vis spectrophotometry in a broad spectral range. […]
Time-dependent equilibrium interfacial tension measured via pendant drop tensiometry can be used to quantify the amount of BAK loss from the concentrated aqueous phase. […]
The partition coefficient of BAK in p-HEMA and p-HEMA/Tert-butyl methacrylate particle matrices were obtained by uptake studies. […] The mass of BAK partitioned in the p-HEMA and p-HEMA/TBM particle matrix was determined by monitoring the amount of BAK lost in the concentrated aqueous BAK/PBS loading solutions. The amount of BAK lost from the concentrated aqueous phase was quantified by time-dependent absorbance measurements using UV-Vis spectrophotometry (Genesys™ 10 UV, Thermo Spectronic, Rochester, NY, USA) over a wavelength range of 190-500 nm. […]

Substance	Γ∞ (maximum surface coverage) [1] [mol/m^2]	β/α (ratio of kinetic rate constants) [1] [m^3/mol]	partition coefficient for BAK [2]
Benzalkonium chloride [BAK]	0.003309	462.14	–
poly(hydroxyethyl methacrylate) [p-HEMA]	–	–	100-500
